# According to patent US20240216344A1, “THIAZOLIDINEDIONE ANALOGS FOR THE TREATMENT OF NAFLD AND METABOLIC DISEASES” (Cirius Therapeutics, Inc., priority 2019, published 2024):
# Legend:
# [1] = tested on: cell functions and key regulatory proteins; test: Impact of MSDC-0602K vs overnutrition on cell functions and key regulatory proteins (Table 1)
# [2] = tested on: patients with biopsy-proven NASH with fibrosis and no cirrhosis; test: EMMINENCE Phase 2b trial, liver histology at 12 months; format: in vivo, human; details: for subjects showing NAS histological improvement: PNPLA3 rs738409-G both copies (GG genotype)
# Procedure: embodiments, the histological features are measured by a NAFLD Activity Score (NAS). The scoring system comprised 14 histological features, 4 of which are evaluated semi-quantitatively: steatosis (0-3), lobular inflammation (0-2), hepatocellular ballooning (0-2), and fibrosis (0-4). Another nine features are recorded as present or absent. A liver biopsy of the subject is formalin-fixed and paraffin-embedded. Serial sections of the liver biopsy are hematoxylin and eosin (H&E) stained. The liver biopsy stained sections are examined for NAS scores. For example, hepatocellular ballooning is graded from 0 to 2 (0: normal hepatocytes with cuboidal shape and pink eosinophilic cytoplasm; 1: presence of clusters of hepatocytes with a rounded shape and pale cytoplasm usually reticulated. Lobular inflammation is defined as a focus of two or more inflammatory cells within the lobule. Foci are counted at 20 magnification (0: none; 1: 2 foci per 20; 2: >2 foci per 20).
# Study Design: EMMINENCE was a randomized, double-blind evaluation of three oral daily doses of MSDC-0602K (62.5 mg, 125 mg and 250 mg) or placebo given for 12 months to adult patients with biopsy-proven NASH with fibrosis and no cirrhosis. The primary efficacy endpoint was assessed at 12 months. Clinic visits were conducted at baseline, 1, 2, 3, 6, 9, and 12 months, followed 2 weeks later by a safety visit. An interim analysis of safety and efficacy not related to the primary and secondary endpoints was conducted when 6 month data were available for 328 patients (see Example 5, above.) Interim results were provided only as summary statistics to avoid any unmasking of the study team or sponsor.
# Participants: Eligible patients were at least 18 years old with NASH (NAS≥4; score ≥1 in each component [steatosis, ballooning, inflammation]) with F1 to F3 fibrosis on liver biopsy taken between 9 months prior to screening and randomization according to a central histopathologist.
# If no usable liver biopsy was available within 9 months prior to screening, a percutaneous liver biopsy was performed in patients with AST≥20 U/L and FibroScan CAP score ≥270 db/m and kPa≥8.5. Digitized slides were read by a single expert histopathologist according to NASH Clinical Research Network criteria. Baseline biopsies were read first for study qualification and a second time mixed randomly among 12-month biopsies. Fasting blood samples for routine central laboratory analyses were collected at each visit, and frozen samples collected at selected visits for biomarker assays.
# Efficacy endpoints: The primary efficacy endpoint was hepatic histological improvement in NAS defined as ≥2-point NAS decrease with a ≥1-point reduction in either ballooning or lobular inflammation and no increase in fibrosis stage at 12 months. Secondary efficacy endpoints included (1) NASH resolution defined as hepatocellular ballooning score of 0 and lobular inflammation score of 0-1 with no increase in fibrosis stage at 12 months, (2) fibrosis improvement defined as ≥1-stage decrease in fibrosis with no worsening of lobular inflammation or hepatocellular ballooning, (3) change from baseline in NAFLD activity score (NAS) and each one of its components (steatosis, lobular inflammation and ballooning) at 12 months, and (4) change from baseline in fibrosis score at 12 months. Exploratory efficacy endpoints included shifts in the central histopathologist's NASH diagnosis confirmation, and changes from baseline to 12 months in markers of glycemic control and insulin sensitivity, liver function/injury, and apoptosis and liver fibrosis.
# Using a modified intent-to-treat approach, treated patients were included for analysis in their randomly-assigned treatment groups. Participation of sites with serious GCP or quality concerns were terminated and their data excluded from the analyses. Post-baseline measures through 14 days after the last study drug dose were included. No errors in treatment assignment occurred. […]
# [3] = 125 mg and 250 mg combined vs placebo, 12 months
# [4] = 125 mg and 250 mg combined, 12 months
smiles,measurement,setting,value
COc1cccc(C(=O)COc2ccc(CC3SC(=O)NC3=O)cc2)c1 (centres unmarked) [MSDC-0602K],Fatty acid oxidation (burning fat),[1],Increased
same,HIF1α,[1],Decreased
same,Inflammation (ballooning due to injury),[1],Decreased
same,Insulin sensitivity (cellular response to insulin),[1],Increased
same,"PPARγ, PPARα",[1],Increased
same,SREBP,[1],Decreased
same,de novo lipid synthesis (making new fat),[1],Decreased
same,mTORC1,[1],Decreased
same,confirmed NASH diagnosis at baseline (re-read) not confirmed at 12 months,[2]; 62.5 mg,32.1%
same,"Fibrosis improvement, adjusted OR","[2]; 62.5 mg vs placebo, 12 months",1.19
same,"Fibrosis improvement, adjusted risk difference","[2]; 62.5 mg vs placebo, 12 months",0.028
same,"NAS improvement, adjusted OR","[2]; 62.5 mg vs placebo, 12 months",0.89
same,"NAS improvement, adjusted risk difference","[2]; 62.5 mg vs placebo, 12 months",−0.020
same,"NASH resolution, adjusted OR","[2]; 62.5 mg vs placebo, 12 months",1.09
same,"NASH resolution, adjusted risk difference","[2]; 62.5 mg vs placebo, 12 months",0.013
same,"Fibrosis improvement, % of patients","[2]; 62.5 mg, 12 months",(23.8) %
same,"Fibrosis improvement, n/N","[2]; 62.5 mg, 12 months",20/84
same,"NAS improvement (primary endpoint), n/N","[2]; 62.5 mg, 12 months",25/84
same,"NASH resolution, % of patients","[2]; 62.5 mg, 12 months",(20.2) %
same,"NASH resolution, n/N","[2]; 62.5 mg, 12 months",17/84
same,adjusted mean difference in NAS change to 12 months vs placebo,[2]; 125 mg,−0.6 points
same,adjusted mean difference in steatosis change to 12 months vs placebo,[2]; 125 mg,−0.2 points
same,confirmed NASH diagnosis at baseline (re-read) not confirmed at 12 months,[2]; 125 mg,26.5%
same,"Fibrosis improvement, adjusted OR",[2]; [3],1.48
same,"Fibrosis improvement, adjusted risk difference",[2]; [3],0.073
same,"NAS improvement, adjusted OR",[2]; [3],1.43
same,"NAS improvement, adjusted risk difference",[2]; [3],0.075
same,"NASH resolution, adjusted OR",[2]; [3],1.66
same,"NASH resolution, adjusted risk difference",[2]; [3],0.093
same,"Fibrosis improvement, % of patients",[2]; [4],(28.6) %
same,"Fibrosis improvement, n/N",[2]; [4],48/168
same,"NAS improvement (primary endpoint), % of patients",[2]; [4],(36.3) %
same,"NAS improvement (primary endpoint), n/N",[2]; [4],61/168
same,"NASH resolution, % of patients",[2]; [4],(29.8) %
same,"NASH resolution, n/N",[2]; [4],50/168
same,"Fibrosis improvement, adjusted OR","[2]; 125 mg vs placebo, 12 months",1.45
same,"Fibrosis improvement, adjusted risk difference","[2]; 125 mg vs placebo, 12 months",0.067
same,"NAS improvement, adjusted OR","[2]; 125 mg vs placebo, 12 months",1.22
same,"NAS improvement, adjusted risk difference","[2]; 125 mg vs placebo, 12 months",0.044
same,"NASH resolution, adjusted OR","[2]; 125 mg vs placebo, 12 months",1.50
same,"NASH resolution, adjusted risk difference","[2]; 125 mg vs placebo, 12 months",0.075
same,"Fibrosis improvement, % of patients","[2]; 125 mg, 12 months",(28.0) %
same,"Fibrosis improvement, n/N","[2]; 125 mg, 12 months",23/82
same,"NAS improvement (primary endpoint), n/N","[2]; 125 mg, 12 months",27/82
same,"NASH resolution, % of patients","[2]; 125 mg, 12 months",(28.0) %
same,"NASH resolution, n/N","[2]; 125 mg, 12 months",23/82
same,adjusted mean difference in NAS change to 12 months vs placebo,[2]; 250 mg,−0.5 points
same,adjusted mean difference in steatosis change to 12 months vs placebo,[2]; 250 mg,−0.3 points
same,confirmed NASH diagnosis at baseline (re-read) not confirmed at 12 months,[2]; 250 mg,30.2%
same,"Fibrosis improvement, adjusted OR","[2]; 250 mg vs placebo, 12 months",1.51
same,"Fibrosis improvement, adjusted risk difference","[2]; 250 mg vs placebo, 12 months",0.077
same,"NAS improvement, adjusted OR","[2]; 250 mg vs placebo, 12 months",1.64
same,"NAS improvement, adjusted risk difference","[2]; 250 mg vs placebo, 12 months",0.104
same,"NASH resolution, adjusted OR","[2]; 250 mg vs placebo, 12 months",1.82
same,"NASH resolution, adjusted risk difference","[2]; 250 mg vs placebo, 12 months",0.108
same,"Fibrosis improvement, % of patients","[2]; 250 mg, 12 months",(29.1) %
same,"Fibrosis improvement, n/N","[2]; 250 mg, 12 months",25/86
same,"NAS improvement (primary endpoint), n/N","[2]; 250 mg, 12 months",34/86
same,"NASH resolution, % of patients","[2]; 250 mg, 12 months",(31.4) %
same,"NASH resolution, n/N","[2]; 250 mg, 12 months",27/86
same,subjects showing NAS histological improvement,[2]; 62.5 mg,about 17.9%
same,subjects showing NAS histological improvement,[2]; 250 mg,about 34.5%
